From patent US10370433B2, “Compositions and methods for diagnosis and treatment of cancer” (BIONTECH AG, priority 2015, dated 2019)
Positions of bridges follow the written chain, without caps; N, C: chain ends. Residues, ends and D or L forms follow the SMILES beside them.

Target: T1, recombinant human Seprase (rhuSeprase) (Homo sapiens, UniProt Q12884)
T1 construct: named pCEP4-IgKappa-huSeprase-coCHO_26-760aa-H6 and used for the generation of recombinant soluble human Seprase (rhuSeprase); mouse Ig kappa-chain V-J2-C secretion signal (N, cleaved yes); made in house; host or cells: FreeStyle CHO-S cells (transient transfection; purified from supernatant by Ni-chelate and SEC)
T1 sequence (Q12884 26-760): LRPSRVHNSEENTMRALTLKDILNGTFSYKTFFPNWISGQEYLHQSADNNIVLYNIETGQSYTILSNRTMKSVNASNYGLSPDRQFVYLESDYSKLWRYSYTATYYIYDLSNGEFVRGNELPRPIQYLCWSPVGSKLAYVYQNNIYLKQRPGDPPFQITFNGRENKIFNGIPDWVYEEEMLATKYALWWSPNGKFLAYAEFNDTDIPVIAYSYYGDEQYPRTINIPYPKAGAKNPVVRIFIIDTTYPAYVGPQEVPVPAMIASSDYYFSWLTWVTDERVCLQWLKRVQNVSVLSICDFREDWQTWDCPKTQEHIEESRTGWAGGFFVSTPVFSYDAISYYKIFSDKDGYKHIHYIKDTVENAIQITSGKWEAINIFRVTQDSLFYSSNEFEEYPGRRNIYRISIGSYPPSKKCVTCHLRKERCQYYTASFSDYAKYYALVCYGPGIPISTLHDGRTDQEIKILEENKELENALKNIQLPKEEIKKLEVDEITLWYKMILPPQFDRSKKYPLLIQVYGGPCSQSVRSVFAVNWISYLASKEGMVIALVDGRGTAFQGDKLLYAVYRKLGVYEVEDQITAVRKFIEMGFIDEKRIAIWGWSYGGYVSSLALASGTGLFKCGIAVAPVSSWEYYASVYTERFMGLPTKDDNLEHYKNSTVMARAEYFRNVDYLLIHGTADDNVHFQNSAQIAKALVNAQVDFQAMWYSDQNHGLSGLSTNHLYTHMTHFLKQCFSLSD
Test: Surface plasmon resonance (Biacore T100) on immobilized rhuSeprase
Type: binding
Conditions: for kon: read-out: ka (1/Ms)

Row | Compound | kd [s⁻¹] | kon [M⁻¹ s⁻¹] | Kd (KD (M, steady state)) [nM]
1 | CC(C)C[C@@H]1NC(=O)[C@@H]2CSSC[C@@H](C(=O)NCC(=O)O)NC(=O)[C@H](Cc3ccccc3)NC(=O)CNC(=O)[C@H](CC(N)=O)NC(=O)[C@@H]3CCCN3C(=O)CNC(=O)[C@@H]3CSSC[C@H](NC(=O)[C@H](CC(=O)O)NC(=O)[C@@H]4CCCN4C(=O)CNC(=O)[C@H](CCCNC(=N)N)NC(=O)CNC(=O)[C@@H]4CCCN4C(=O)[C@H]([C@@H](C)O)NC(=O)[C@H](Cc4c[nH]c5ccccc45)NC(=O)[C@H](CC(N)=O)NC(=O)[C@H](CO)NC(=O)[C@H](Cc4ccc(O)cc4)NC(=O)[C@@H]4CCCN4C(=O)[C@@H](NC(=O)[C@H](C)NC(=O)CNC(=O)[C@H](CO)NC(=O)CN)CSSC[C@H](NC(=O)CNC(=O)[C@H](C)NC1=O)C(=O)N[C@@H](C(C)C)C(=O)N3)C(=O)N[C@@H](CO)C(=O)N[C@@H](CCC(N)=O)C(=O)N[C@@H](CC(=O)O)C(=O)N[C@@H](CO)C(=O)N[C@@H](CC(=O)O)C(=O)N2 [ET-FA-012] (H-GSGACPYSNWTPGRGPDCSQDSDCLAGCVCGPNGFCG-OH; disulfide 5-28, 18-30, 24-36; N-terminus and C-terminus assumed) | 0.8528 | 608000 | –
2 | CC[C@H](C)[C@@H]1NC(=O)[C@@H]2CSSC[C@H](NC(=O)[C@H](C)NC(=O)CNC(=O)[C@H](CO)NC(=O)CN)C(=O)N3CCC[C@H]3C(=O)N[C@@H](Cc3ccc(O)cc3)C(=O)N[C@@H](CO)C(=O)N[C@@H](CCCNC(=N)N)C(=O)N[C@@H](Cc3c[nH]c4ccccc34)C(=O)N[C@@H](CCSC)C(=O)N3CCC[C@H]3C(=O)NCC(=O)N[C@@H](CCCNC(=N)N)C(=O)NCC(=O)N3CCC[C@H]3C(=O)N[C@@H](CO)C(=O)N[C@H]3CSSC[C@H](NC1=O)C(=O)N[C@@H](CCCNC(=N)N)C(=O)NCC(=O)N[C@@H](CC(N)=O)C(=O)NCC(=O)N[C@@H](Cc1ccc(O)cc1)C(=O)N[C@H](C(=O)NCC(=O)O)CSSC[C@H](NC(=O)[C@H](CC(=O)O)NC(=O)[C@H](CO)NC(=O)[C@H](CC(=O)O)NC(=O)[C@H](CCCNC(=N)N)NC(=O)[C@H](CCCNC(=N)N)NC3=O)C(=O)N1CCC[C@H]1C(=O)NCC(=O)N[C@@H](CCCNC(=N)N)C(=O)N2 [FA7-A05] (H-GSGACPYSRWMPGRGPSCRRDSDCPGRCICRGNGYCG-OH; disulfide 5-28, 18-30, 24-36; N-terminus and C-terminus assumed) | 0.05035 | 246000 | –
3 | CC[C@H](C)[C@@H]1NC(=O)[C@@H]2CSSC[C@H](NC(=O)[C@H](C)NC(=O)CNC(=O)[C@H](CO)NC(=O)CN)C(=O)N3CCC[C@H]3C(=O)N[C@@H](Cc3ccc(O)cc3)C(=O)N[C@@H](CO)C(=O)N[C@@H](CCCNC(=N)N)C(=O)N[C@@H](Cc3c[nH]c4ccccc34)C(=O)N[C@@H](C)C(=O)N[C@@H](C(C)C)C(=O)NCC(=O)N[C@@H](CCCNC(=N)N)C(=O)NCC(=O)N3CCC[C@H]3C(=O)N[C@@H](CC(=O)O)C(=O)N[C@H]3CSSC[C@H](NC1=O)C(=O)N[C@@H](CCCNC(=N)N)C(=O)NCC(=O)N[C@@H](CC(N)=O)C(=O)NCC(=O)N[C@@H](Cc1ccc(O)cc1)C(=O)N[C@H](C(=O)NCC(=O)O)CSSC[C@H](NC(=O)[C@H](CC(=O)O)NC(=O)[C@H](CO)NC(=O)[C@H](CC(=O)O)NC(=O)[C@H](CCCNC(=N)N)NC(=O)[C@H](CCCNC(=N)N)NC3=O)C(=O)N1CCC[C@H]1C(=O)NCC(=O)N[C@@H](CCCNC(=N)N)C(=O)N2 [FA8-D06] (H-GSGACPYSRWAVGRGPDCRRDSDCPGRCICRGNGYCG-OH; disulfide 5-28, 18-30, 24-36; N-terminus and C-terminus assumed) | 0.05303 | 346000 | 113
4 | CC[C@H](C)[C@@H]1NC(=O)[C@@H]2CSSC[C@H](NC(=O)[C@H](C)NC(=O)CNC(=O)[C@H](CO)NC(=O)CN)C(=O)N3CCC[C@H]3C(=O)N[C@@H](Cc3ccc(O)cc3)C(=O)N[C@@H]([C@@H](C)O)C(=O)N[C@@H](CC(N)=O)C(=O)N[C@@H](Cc3c[nH]c4ccccc34)C(=O)N[C@@H](Cc3c[nH]cn3)C(=O)N3CCC[C@H]3C(=O)NCC(=O)N[C@@H](CCCNC(=N)N)C(=O)NCC(=O)N3CCC[C@H]3C(=O)N[C@@H](C)C(=O)N[C@H]3CSSC[C@H](NC1=O)C(=O)N[C@@H](CCCNC(=N)N)C(=O)NCC(=O)N[C@@H](CC(N)=O)C(=O)NCC(=O)N[C@@H](Cc1ccc(O)cc1)C(=O)N[C@H](C(=O)NCC(=O)O)CSSC[C@H](NC(=O)[C@H](CC(=O)O)NC(=O)[C@H](CO)NC(=O)[C@H](CC(=O)O)NC(=O)[C@H](CCCNC(=N)N)NC(=O)[C@H](CCCNC(=N)N)NC3=O)C(=O)N1CCC[C@H]1C(=O)NCC(=O)N[C@@H](CCCNC(=N)N)C(=O)N2 [FA8-G12] (H-GSGACPYTNWHPGRGPACRRDSDCPGRCICRGNGYCG-OH; disulfide 5-28, 18-30, 24-36; N-terminus and C-terminus assumed) | 0.3171 | 651000 | –
5 | CC[C@H](C)[C@@H]1NC(=O)[C@@H]2CSSC[C@H](NC(=O)[C@H](C)NC(=O)CNC(=O)[C@H](CO)NC(=O)CN)C(=O)N3CCC[C@H]3C(=O)N[C@@H](Cc3ccc(O)cc3)C(=O)N[C@@H]([C@@H](C)O)C(=O)N[C@@H](CCCNC(=N)N)C(=O)N[C@@H](Cc3c[nH]c4ccccc34)C(=O)N[C@@H](CCC(N)=O)C(=O)N3CCC[C@H]3C(=O)NCC(=O)N[C@@H](CCCNC(=N)N)C(=O)NCC(=O)N3CCC[C@H]3C(=O)N[C@@H](CO)C(=O)N[C@H]3CSSC[C@H](NC1=O)C(=O)N[C@@H](CCCNC(=N)N)C(=O)NCC(=O)N[C@@H](CC(N)=O)C(=O)NCC(=O)N[C@@H](Cc1ccc(O)cc1)C(=O)N[C@H](C(=O)NCC(=O)O)CSSC[C@H](NC(=O)[C@H](CC(=O)O)NC(=O)[C@H](CO)NC(=O)[C@H](CC(=O)O)NC(=O)[C@H](CCCNC(=N)N)NC(=O)[C@H](CCCNC(=N)N)NC3=O)C(=O)N1CCC[C@H]1C(=O)NCC(=O)N[C@@H](CCCNC(=N)N)C(=O)N2 [FA8-D05] (H-GSGACPYTRWQPGRGPSCRRDSDCPGRCICRGNGYCG-OH; disulfide 5-28, 18-30, 24-36; N-terminus and C-terminus assumed) | 0.8121 | 4.21e+06 | –
6 | CC[C@H](C)[C@@H]1NC(=O)[C@@H]2CSSC[C@H](NC(=O)[C@H](C)NC(=O)CNC(=O)[C@H](CO)NC(=O)CN)C(=O)N3CCC[C@H]3C(=O)N[C@@H](Cc3ccc(O)cc3)C(=O)N[C@@H]([C@@H](C)O)C(=O)N[C@@H](CCCNC(=N)N)C(=O)N[C@@H](Cc3c[nH]c4ccccc34)C(=O)N[C@@H](C)C(=O)N[C@@H](C(C)C)C(=O)NCC(=O)N[C@@H](CCCNC(=N)N)C(=O)NCC(=O)N3CCC[C@H]3C(=O)N[C@@H](CC(=O)O)C(=O)N[C@H]3CSSC[C@H](NC1=O)C(=O)N[C@@H](CCCNC(=N)N)C(=O)NCC(=O)N[C@@H](CC(N)=O)C(=O)NCC(=O)N[C@@H](Cc1ccc(O)cc1)C(=O)N[C@H](C(=O)NCC(=O)O)CSSC[C@H](NC(=O)[C@H](CC(=O)O)NC(=O)[C@H](CO)NC(=O)[C@H](CC(=O)O)NC(=O)[C@H](CCCNC(=N)N)NC(=O)[C@H](CCCNC(=N)N)NC3=O)C(=O)N1CCC[C@H]1C(=O)NCC(=O)N[C@@H](CCCNC(=N)N)C(=O)N2 [FA8-D03] (H-GSGACPYTRWAVGRGPDCRRDSDCPGRCICRGNGYCG-OH; disulfide 5-28, 18-30, 24-36; N-terminus and C-terminus assumed) | 0.1381 | 939000 | –
7 | CC[C@H](C)[C@@H]1NC(=O)[C@@H]2CSSC[C@H](NC(=O)[C@H](C)NC(=O)CNC(=O)[C@H](CO)NC(=O)CN)C(=O)N3CCC[C@H]3C(=O)N[C@@H](Cc3ccc(O)cc3)C(=O)N[C@@H](CO)C(=O)N[C@@H](CC(N)=O)C(=O)N[C@@H](Cc3c[nH]c4ccccc34)C(=O)N[C@@H](C)C(=O)N[C@@H](C(C)C)C(=O)NCC(=O)N[C@@H](CCCNC(=N)N)C(=O)NCC(=O)N3CCC[C@H]3C(=O)N[C@@H](CO)C(=O)N[C@H]3CSSC[C@H](NC1=O)C(=O)N[C@@H](CCCNC(=N)N)C(=O)NCC(=O)N[C@@H](CC(N)=O)C(=O)NCC(=O)N[C@@H](Cc1ccc(O)cc1)C(=O)N[C@H](C(=O)NCC(=O)O)CSSC[C@H](NC(=O)[C@H](CC(=O)O)NC(=O)[C@H](CO)NC(=O)[C@H](CC(=O)O)NC(=O)[C@H](CCCNC(=N)N)NC(=O)[C@H](CCCNC(=N)N)NC3=O)C(=O)N1CCC[C@H]1C(=O)NCC(=O)N[C@@H](CCCNC(=N)N)C(=O)N2 [FA8-F04] (H-GSGACPYSNWAVGRGPSCRRDSDCPGRCICRGNGYCG-OH; disulfide 5-28, 18-30, 24-36; N-terminus and C-terminus assumed) | 0.2003 | 624000 | –
